# Assay results published in patent US20130047297A1, “POLYNUCLEOTIDE MOLECULES FOR GENE REGULATION IN PLANTS” (priority 2010, published 2013).
# d = 2'-deoxy (DNA); r = 2'-OH (RNA)
# Tests used:
# Type in all cases: in vivo
# [1] = tested on: glyphosate-resistant Palmer amaranth plants; assay: Salts, EDTA, glycerin as additives to polynucleotide spray solutions (Example 35, Tables 26-28); conditions: for enhancing the efficacy of the polynucleotides and potentiating the herbicidal activity of glyphosate: additive in the spray solution
# [2] = tested on: glyphosate-resistant Palmer amaranth containing 16 copies of EPSPS; assay: Glyphosate counter-ions with EPSPS polynucleotides (Example 35, Table 29); conditions: for Palmer control (%) / Palmer height (cm): 1682 g acid equivalent per hectare of the glyphosate salt, with or without EPSPS polynucleotides (IDT [1]-[4]) in 0.5% Silwet L-77, 2% ammonium sulfate, 16 copies of EPSPS, 21 days after treatment; for herbicidal activity compared to the potassium salt: 1682 g acid equivalent per hectare of glyphosate salt with IDT [1]-[4], 21 days after glyphosate treatment
# Description: FIG. 38 depicts the effect of varying glyphosate counter-ions on herbicidal activity (presented as percent of weed control/kill, and as plant height) of topically applied polynucleotides (RNA) on glyphosate-resistant Palmer amaranth plants. A mixture of EPSPS polynucleotides (IDT [1] (SEQ ID NO:83-84), IDT [2] (SEQ ID NO:85-86), IDT [3] (SEQ ID NO:87-88), and IDT [4] (SEQ ID NO:89-90)) in 0.5% Silwet L-77, 2% ammonium sulfate in 10 millimolar sodium phosphate buffer, pH 6.8 with 0.2% Roundup® WeatherMax® carrier (MON56151 tallowamine surfactant blend of tallowamine (16-18C) and cocoamine (12-14C) in the ratio of 55:45) and 1682 g acid equivalent per hectare of one of the glyphosate salts; K+ glyphosate, isopropylammonium+ glyphosate or monoethanolammonium+ glyphosate at 215 liters/acre by Milli spray on 3 replicates of 4-6 inch glyphosate-resistant Palmer amaranth containing 16 copies of EPSPS. Plant height was scored at 21 days after glyphos ate treatment.
# Palmer amaranth = assay: Combinations of EPSPS, TIF and ddATPase polynucleotides then glyphosate (Example 26, Tables 12 and 13); conditions: protocol 3; 29 g/acre; copy number 16; 13 DAT
# Description: Solutions of the polynucleotides were prepared and applied to the leaves of Palmer amaranth using the protocols described in Table 12.
# [3] = tested on: Nicotiana benthamiana phytoene desaturase; assay: Topical oligonucleotides/polynucleotides on tobacco, PDS bleaching and chlorophyll (Example 10); conditions: for Chlorophyll (day 12) / Chlorophyll (day 7): 6 spots on the apical area; for Chlorophyll (day 12): buffer control 38.4; for Chlorophyll (day 7): lower values indicate suppression of phytoene desaturase, buffer control 31.2; for Bleaching (day 5): 25 microM each; for systematically regulating (suppressing) the target gene phytoene desaturase: Table 4 treatments; for bleaching of apical leaves (FIG. 15): another assay; for bleaching of apical leaves (FIG. 14): topical treatment
# Description: The following procedure was used for all assays described in this example. Four-week old Nicotiana benthamiana plants were used in all assays. Plants were treated with 0.1% Silwet L-77 solution freshly made with ddH2O. Two fully expanded leaves per plant (one cotyledon, one true leaf) were dipped into the Silwet L-77 solution for a few seconds, and allowed to dry for 15-30 minutes before application of the polynucleotide composition. Final concentration for each oligonucleotide or polynucleotide was 25 microM (in 0.01% Silwet L-77, 5 mM sodium phosphate buffer, pH 6.8) unless otherwise stated. 20 microliters of the solution was applied to the top surface of each of the two pre-treated leaves to provide a total of 40 microliters (1 nmol oligonucleotide or polynucleotide) for each plant. Leaf bleaching was observed 3 days post treatment.
# FIG. 13 illustrates phenotypes observed at day 12 after treatment in another assay of the effect from twelve combinations of polynucleotides or oligonucleotides (see Table 4). Table 4 also lists observations of visible bleaching of the plants at day 5 after treatment and the results of chlorophyll measurements taken at days 7 and 12 after treatment. Chlorophyll measurements are an indication of suppression of the target gene phytoene desaturase, and measurements were taken at 6 spots on the apical area, focussing on visibly bleached leaves or (in plants without visible bleaching) on leaves in equivalent locations on the plants; lower chlorophyll measurement values indicate suppression of phytoene desaturase.
# [4] = Table 26: additive to 1% Silwet L-77 spray solution of polynucleotides (RNA), glyphosate
# [5] = 2% salt as additive to 1% Silwet L-77 spray solution of topically applied polynucleotides (RNA), glyphosate
molecule,measurement,setting,value
"O=C(O)CN(CCN(CC(=O)O)CC(=O)O)CC(=O)O [EDTA, ethylenediaminetetraacetic acid]",Palmer control (%),"[1]; Table 26: additive (2% ammonium sulfate; 0.004% EDTA) to 1% Silwet L-77 spray solution of polynucleotides (RNA), glyphosate",45%
same,Palmer height (cm),[1]; [4],1.0 cm
same,enhancing the efficacy of the polynucleotides and potentiating the herbicidal activity of glyphosate,[1],act similarly to 2% ammonium sulfate
"OCC(O)CO [Glycerin, glycerin]",enhancing the efficacy of the polynucleotides and potentiating the herbicidal activity of glyphosate,[1],enhance the efficacy of the polynucleotides
CC(C)N.O=C(O)CNCP(=O)(O)O [IPA + glyphosate],Palmer control (%),[2],9%
same,Palmer height (cm),[2],14.5 cm
O=C(O)CNCP(=O)([O-])O.[K+] [K + glyphosate],Palmer control (%),[2],23%
same,Palmer height (cm),[2],12.3 cm
NCCO.O=C(O)CNCP(=O)(O)O [MEA + glyphosate],Palmer control (%),[2],9%
same,Palmer height (cm),[2],14.5 cm
Cl.N [ammonium chloride],Palmer control (%),[1]; [5],52%
same,Palmer height (cm),[1]; [5],10.3 cm
same,enhancing the efficacy of the polynucleotides and potentiating the herbicidal activity of glyphosate,[1],act similarly to ammonium sulfate
N.N.O=S(=O)(O)O [ammonium sulfate],Palmer control (%),[1]; [5],54%
same,Palmer height (cm),[1]; [5],9.3 cm
same,Palmer height (cm),[1]; [4],1.8 cm
same,Palmer control (%),[1]; in vivo,43%
"CC(C)N.O=C(O)CNCP(=O)(O)O [isopropylammonium+ glyphosate, reference compound]",herbicidal activity compared to the potassium salt,[2],better herbicidal activity
"NCCO.O=C(O)CNCP(=O)(O)O [monoethanolammonium+ glyphosate, reference compound]",herbicidal activity compared to the potassium salt,[2],better herbicidal activity
[Cl-].[Na+] [sodium chloride],Palmer control (%),[1]; [5],15%
same,Palmer height (cm),[1]; [5],15.0 cm
O=S(=O)([O-])[O-].[Na+].[Na+] [sodium sulfate],Palmer control (%),[1]; in vivo,7%
same,Palmer height (cm),[1]; in vivo,17.0 cm
CCCC[P+](CCCC)(CCCC)CCCC.[Br-] [tetrabutylphosphonium bromide],enhancing the efficacy of the polynucleotides and potentiating the herbicidal activity of glyphosate,[1],act similarly to ammonium sulfate
CC[N+](CC)(CC)CC.[Cl-] [tetraethylammonium chloride],Palmer control (%),[1]; [5],27%
same,Palmer height (cm),[1]; [5],12.0 cm
C[N+](C)(C)C.[Cl-] [tetramethylammonium chloride],Palmer control (%),[1]; in vivo,19%
same,Palmer height (cm),[1]; in vivo,15.0 cm
"IDT [1]: Palmer/EPSPS dsRNA, SEQ ID NO. 83, 84 (chain 1 CUACCAUCAACAAUGGUGUCCAUAC; chain 2 GUAUGGACACCAUUGUUGAUGGUAGUA; chain 1: sugars from the 5' end r23 d2, backbone not given here; chain 2: RNA, backbone not given here)",Results: % stunted,Palmer amaranth,51% stunted
"Oligo 3 without T7 promoter: SEQ ID NOs 22, 23; PDS anti-sense 22-mer oligonucleotides without a T7 promoter (antisense 1 CATCTCCTTTAATTGTACTGCC; antisense 2 TTTAATTGTACTGCCATTATTC; listed as DNA, chemistry not given here)",Chlorophyll (day 12),[3],3.2
same,Chlorophyll (day 7),[3],11.3
same,Bleaching (day 5),[3]; 40 microliters per plant,strong
same,systematically regulating (suppressing) the target gene phytoene desaturase,[3],effective
same,bleaching of apical leaves (FIG. 15),[3],strong bleaching
same,bleaching of apical leaves (FIG. 14),[3],Strong bleaching
"Oligos 1 and 2 without T7 promoter: SEQ ID NOs 18, 19 (chain 1 GCAAGAGATGTCCTAGGTGGG; chain 2 ACAGATTTCTTCAGGAGAAACATGG; DNA, backbone not given here)",Chlorophyll (day 12),[3],41.1
same,Chlorophyll (day 7),[3],32.0
same,Bleaching (day 5),[3]; 40 microliters per plant,not yet
same,systematically regulating (suppressing) the target gene phytoene desaturase,[3],did not suppress
"PDS 15-mer anti-sense ssDNA: SEQ ID NO:32 (antisense CATCTCCTTTAATTG; DNA, backbone not given here)",bleaching of apical leaves (FIG. 14),[3],Little or no visible bleaching
"PDS 18-mer anti-sense ssDNA: SEQ ID NO:33 (antisense CATCTCCTTTAATTGTAC; DNA, backbone not given here)",bleaching of apical leaves (FIG. 14),[3],Little or no visible bleaching
"PDS 21-mer sense ssDNA: SEQ ID NO:36 (sense GCAGTACAATTAAAGGAGATG; DNA, backbone not given here)",bleaching of apical leaves (FIG. 15),[3],Little or no visible bleaching
"PDS 33-mer anti-sense ssDNA: SEQ ID NO:35 (antisense CATCTCCTTTAATTGTACTGCCATTATTCAGTA; DNA, backbone not given here)",bleaching of apical leaves (FIG. 14),[3],Strong bleaching
"PDS 700-mer dsRNA: dsRNA designed from nucleotides 421-1120 of SEQ ID NO:2 (nucleic acid, listed as Nicotiana benthamiana, dsRNA of this region) DNA: GCAAGAGATGTCCTAGGTGGGAAGGTAGCTGCATGGAAAGATGATGATGGAGATTGGTACGAGACTGGGTTGCACATATTCTTTGGGGCTTACCCAAATATGCAGAACCTGTTTGGAGAACTAGGGATTGATGATCGGTTGCAGTGGAAGGAACATTCAATGATATTTGCGATGCCTAACAAGCCAGGGGAGTTCAGCCGCTTTGATTTTCCTGAAGCTCTTCCTGCGCCATTAAATGGAATTTTGGCCATACTAAAGAACAACGAAATGCTTACGTGGCCCGAGAAAGTCAAATTTGCTATTGGACTCTTGCCAGCAATGCTTGGAGGGCAATCTTATGTTGAAGCTCAAGACGGTTTAAGTGTTAAGGACTGGATGAGAAAGCAAGGTGTGCCTGATAGGGTGACAGATGAGGTGTTCATTGCCATGTCAAAGGCACTTAACTTCATAAACCCTGACGAGCTTTCGATGCAGTGCATTTTGATTGCTTTGAACAGATTTCTTCAGGAGAAACATGGTTCAAAAATGGCCTTTTTAGATGGTAACCCTCCTGAGAGACTTTGCATGCCGATTGTGGAACATATTGAGTCAAAAGGTGGCCAAGTCAGACTAAACTCACGAATAAAAAAGATCGAGCTGAATGAGGATGGAAGTGTCAAATGTTTTATACTGAATAATGGCAGTACAATTAAAGGAGATG",bleaching of apical leaves (FIG. 14),[3],Strong bleaching
"Oligos 1, 2, and 3 w/o T7 promoter and oligos 4, 5, & 6: SEQ ID NOs 18, 19, 22, 23, 24, 25, 26 (nucleic acid, DNA, backbone not given here) chain 1: GCAAGAGATGTCCTAGGTGGG chain 2: ACAGATTTCTTCAGGAGAAACATGG chain 3: CATCTCCTTTAATTGTACTGCC chain 4: TTTAATTGTACTGCCATTATTC chain 5: CACTTCCATCCTCATTCAGCTCGAT chain 6: ACACCTCATCTGTCACCCTATCAG chain 7: CAGTCTCGTACCAATCTCCATCAT",Chlorophyll (day 12),[3],34.4
same,Chlorophyll (day 7),[3],30.2
same,Bleaching (day 5),[3]; 40 microliters per plant,not yet
"200-mer dsRNA polynucleotide: dsRNA corresponding to nucleotides 914-1113 of SEQ ID NO:2 (nucleic acid, listed as Nicotiana benthamiana, complementary strand) sense: ACAGATTTCTTCAGGAGAAACATGGTTCAAAAATGGCCTTTTTAGATGGTAACCCTCCTGAGAGACTTTGCATGCCGATTGTGGAACATATTGAGTCAAAAGGTGGCCAAGTCAGACTAAACTCACGAATAAAAAAGATCGAGCTGAATGAGGATGGAAGTGTCAAATGTTTTATACTGAATAATGGCAGTACAATTAAA",Chlorophyll (day 12),[3],4.0
same,Chlorophyll (day 7),[3],11.3
same,Bleaching (day 5),[3]; 40 microliters per plant,strong
same,bleaching of apical leaves (FIG. 12A),"[3]; 200-mer dsRNA at 0.6 microM, oligonucleotides 25 microM each, 40 microliters per plant",Bleaching of apical leaves was observed
same,systematically regulating (suppressing) the target gene phytoene desaturase,[3],effective
